Reference: ChEMBL document CHEMBL5143718, “Rational Design of a Theranostic Agent Triggered by Endogenous Nitric Oxide in a Cellular Model of Alzheimer's Disease” (J Med Chem, 2022)
Active and inactive are the calls of the source. No cut-off for these calls is given here.

Key:
[1] = Cytotoxicity against mouse HT-22 cells assessed as cell viability at 5 uM after 48 hrs by CCK8 assay; type: toxicity, cell-based; details: read-out: Activity
[2] = test system: HT-22; test: Antioxidant activity in mouse HT-22 cells cocultured with BV-2 cells assessed as reduction in glutamic acid level at 5 uM incubated for 24 hrs; type: functional
[3] = Cytotoxicity against mouse HT-22 cells cocultured with BV-2 cells assessed as cell viability at 5 uM after 48 hrs by CCK8 assay (reference value: 5.19 +/- 1.60%); type: toxicity, cell-based; details: read-out: Activity
[4] = Drug uptake in L-arginine stimulated mouse BV-2 cells assessed as increase in fluorescence at 10 uM pretreated with L-arginine and carboxyl-PTIO for 3 hrs followed by compound addition and measured after 3 hrs; type: ADME, cell-based
[5] = Drug uptake in mouse BV-2 cells assessed as increase in fluorescence at 10 uM after 3 hrs; type: ADME, cell-based; details: bv-2, 3 h
[6] = Drug uptake in LPS-stimulated mouse BV-2 cells assessed as increase in fluorescence at 10 uM pretreated with LPS and L-NAA for 16 hrs followed by compound addition and measured after 3 hrs; type: ADME, cell-based; details: bv-2, 3 h
[7] = Drug uptake in INFgamma-stimulated mouse BV-2 cells assessed as increase in fluorescence at 10 uM pretreated with INFgamma and L-NAA for 16 hrs followed by compound addition and measured after 3 hrs; type: ADME, cell-based; details: bv-2, 3 h
[8] = Drug uptake in L-arginine stimulated mouse BV-2 cells assessed as increase in fluorescence at 10 uM pretreated with L-arginine and L-NAA for 16 hrs followed by compound addition and measured after 3 hrs; type: ADME, cell-based; details: bv-2, 3 h
[9] = Drug uptake in mouse HT-22 cells cocultured with BV-2 cells assessed as increase in fluorescence at 10 uM after 12 hrs; type: ADME, cell-based; details: ht-22, 12 h
[10] = Drug uptake in LPS-stimulated mouse BV-2 cells assessed as increase in fluorescence at 10 uM pretreated with LPS and carboxyl-PTIO for 3 hrs followed by compound addition and measured after 3 hrs; type: ADME, cell-based
[11] = Drug uptake in INFgamma-stimulated mouse BV-2 cells assessed as increase in fluorescence at 10 uM pretreated with INFgamma and carboxyl-PTIO for 3 hrs followed by compound addition and measured after 3 hrs; type: ADME, cell-based
[12] = test system: HT-22; test: Cytotoxicity against mouse HT-22 cells cocultured with BV-2 cells assessed as increase in live/dead cells ratio at 5 uM after 48 hrs by Live/dead staining based fluorescence microscopic analysis; type: toxicity, cell-based; details: ht-22, 48 h
[13] = test system: BV-2; test: Cytotoxicity against mouse BV-2 cells assessed as reduction in cell viability at 10 uM incubated for 24 hrs by CCK8 assay; type: toxicity, cell-based; details: bv-2, 24 h
[14] = test system: HT-22; test: Cytotoxicity against mouse HT-22 cells assessed as reduction in cell viability at < 5 uM incubated for 24 hrs by CCK8 assay; type: toxicity, cell-based; details: ht-22, 24 h
[15] = test system: HT-22; test: Cytotoxicity against mouse HT-22 cells assessed as reduction in cell viability at higher concentration incubated for 24 hrs by CCK8 assay; type: toxicity, cell-based; details: ht-22, 24 h
[16] = test system: HT-22; test: Cytotoxicity against mouse HT-22 cells assessed as reduction in cell viability at 5 uM after 24 hrs by CCK8 assay; type: toxicity, cell-based; details: ht-22, 24 h
[17] = test system: HT-22; test: Cytotoxicity against mouse HT-22 cells assessed as reduction in cell viability at 5 uM after 36 hrs by CCK8 assay; type: toxicity, cell-based; details: ht-22, 36 h
[18] = test system: HT-22; test: Antioxidant activity in mouse HT-22 cells cocultured with BV-2 cells assessed as ROS scavenging activity at 5 uM incubated for 48 hrs by DCFH-DA staining based microplate reader analysis; type: functional
[19] = test system: HT-22; test: Antioxidant activity in mouse HT-22 cells cocultured with BV-2 cells assessed as increase in GSH level at 5 uM incubated for 48 hrs by DCFH-DA staining based microplate reader analysis; type: functional
[20] = test system: HT-22; test: Cytotoxicity against mouse HT-22 cells assessed as increase in live/dead cells ratio at 5 uM after 48 hrs by Live/dead staining based fluorescence microscopic analysis; type: toxicity, cell-based; details: ht-22, 48 h
[21] = Effective permeability of compound in PBS buffer at pH 7.4 incubated for 18 hrs by PAMPA assay; type: ADME; details: read-out: Peff
[22] = test system: BV-2; test: Cytotoxicity against mouse BV-2 cells assessed as reduction in cell viability at 1 to 10 uM incubated for 24 hrs by CCK8 assay; type: toxicity, cell-based; details: bv-2, 24 h, dose 1-10 µM
[23] = test system: HT-22; test: Antioxidant activity in mouse HT-22 cells cocultured with BV-2 cells assessed as upregulation of NQO1 mRNA expression at 5 uM after 48 hrs by qRT-PCR analysis; type: functional, cell-based
[24] = test system: HT-22; test: Antioxidant activity in mouse HT-22 cells cocultured with BV-2 cells assessed as upregulation of HO-1 mRNA expression at 5 uM after 48 hrs by qRT-PCR analysis; type: functional, cell-based

For `CC12CC3CC(C)(C1)CC(NCCOCCOCCOCCO)(C3)C2`, the viability at 48 h, 5 µM [1] was 20.1% and the Activity [2] was “Active”.

With `O=C1C(=O)c2ccccc2-c2ccccc21` [9,10-PHENANTHRENEQUINONE] the viability at 48 h, 5 µM [3] was 4.46%, the Drug uptake [4] was “Active” and the Drug uptake [5] was “Active”. The Drug uptake [6] was “Active”, the Drug uptake [7] was “Active” and the Drug uptake [8] was “Active”. The Drug uptake [9] was “Active”, the Drug uptake [10] was “Active” and the Drug uptake [11] was “Active”. The Activity [12] was “Non-Toxic”.

For `O=C1C=CC(=O)C=C1` [BENZOQUINONE], the viability at 48 h, 5 µM [3] was 4.33%, the Drug uptake [4] was “Active” and the Drug uptake [5] was “Active”. For the same compound, the Drug uptake [6] was “Active”, the Drug uptake [7] was “Active” and the Drug uptake [8] was “Active”. The Drug uptake [9] was “Active”, the Drug uptake [10] was “Active” and the Drug uptake [11] was “Active”. For the same compound, the Activity [12] was “Non-Toxic”.

For `CC12CC3CC(C)(C1)CC(N)(C3)C2` [MEMANTINE], the Activity [13] was > 70%, the Activity [14] was “Non-Toxic” and the Activity [15] was “Non-Toxic”. For the same compound, the Activity [16] was “Non-Toxic”, the Activity [17] was “Non-Toxic” and the viability at 48 h, 5 µM [1] was 13.9%. The Activity [2] was 0.47, the Activity [18] was 586.7 and the Activity [19] was 91.9.

In the case of `CC12CC3CC(C)(C1)CC(NCCOCCOCCOCCOc1ccc(N4c5ccccc5N(c5ccccc5)c5c4c4ccccc4c4ccccc54)cc1)(C3)C2`, the Activity [20] is reported as “Non-Toxic”, the Papp at 18 h [21] is reported as 5.73 ×10⁻⁶ cm/s and the Activity [22] is reported as “Non-Toxic”. For the same compound, the Activity [14] was “Non-Toxic”, the Activity [15] was “Non-Toxic” and the Activity [16] was “Non-Toxic”. The Activity [17] was “Non-Toxic”, the viability at 48 h, 5 µM [1] was 45.9% and the Activity [2] was 0.32. For the same compound, the Activity [18] was 732, the Activity [19] was 103.7 and the Activity [23] was “Active”. The Activity [24] was “Active”.
